Source: EP3839043A1, “SCREENING METHODS FOR COMPOUNDS MODULATING POLYAMINE TRANSPORT” (Katholieke Universiteit Leuven, priority 2019, dated 2021)

Legend:
SH-SY5Y cells [1] = details: KO and KO/D508N cells; 10 µM SPM, 4 h
Experimental: FITC-dextran based lysosomal pH - SH-SY5Y cells were seeded in 12-well plates (1.0 X 10^5 cells per well) and allowed to adhere overnight. Cells were exposed to 50 µg/ml FITC-dextran for 72 h. Samples were then washed, placed in fresh media and treated with SPM (10 µM) alone or in combination with acidic nanoparticles (180 ng/ml, 1 h pre-incubation) for 4 h. Samples were then collected by centrifugation (450 x g, 5 min) and washed in PBS. Cells were finally resuspended in 500 µl of PBS containing 1% BSA and FITC dual emission assessed by flow cytometry (excitation 488 nm, emission 530 (BL1) and 600 (BL2)) using an Attune NXT flow cytometer (Invitrogen). The emission (BL1/BL2) of all samples were compared to a standard curve, whereby signals were obtained from control cells resuspended in monensin (100 µM) containing Britton Robinson buffer with increasing pH (3.0-8.0).

D508N mutant = D508N mutant (Homo sapiens, UniProt Q9NQ11, D513N); details: 100 µM SPM
Experimental: Membrane fractionation - Transduced SH-SY5Y cells were seeded in […] at a density of 6 x 10^6 cells per plate. 24 h later, the cells were harvested following trypsinization and brief centrifugation (300 x g, 5 min). Subcellular fractionation was performed by differential centrifugation. The microsomal protein concentration was measured using the bicinchoninic acid assay (Thermo Fischer Scientific, Pierce) according to the manufacturer's instructions.
ATPase assay - The ATPase activity of ATP13A2 was assessed using a commercially available luminescence assay (ADP-Glo Max assay, Promega) that monitors the production of ADP via luciferase activity. The reactions were performed for 30 min (37°C) in a final volume of 25 µl. The assay reaction mixture contained 50 mM MOPS-KOH (pH 7), 100 mM KCI, 11 mM MgCl2, 1 mM DTT, 195 µM DDM, various concentrations of the indicated compound, and either microsomes (5 µg) harvested from SH-SY5Y cells overexpressing ATP13A2 (WT or mutants) or purified ATP13A2 (0.5 µg). When purified ATP13A2 was used, we included 125 µM PA, 125 µM PI(3,5)P2 and 19.5 µM DDM in the reaction buffer. […] After 40 min, luminescence was detected using a FlexStation 3.0 system (Molecular Devices). Dose-response curves and n/Km/Vmax values were calculated using GraphPad Prism Software (GraphPad Software Inc.).

SH-SY5Y cells [2] = details: KO and KO/D508N cells; SPM 10 µM, 4 h
Experimental: BODIPY-SPM localization and lysosomal rupture analysis - For all immunofluorescent stainings SH-SY5Y cell lines were seeded in 12-well plates (0.25 X 10^5 cells per well on coverslips) and the next day, the cells were incubated with the indicated compounds for 4 h at 37°C. For BODIPY-SPM analysis, cells were pulsed with 5 µM SPM for 15 min, washed and chased in fresh media for a further 1 h and 45 min at 37°C. Following treatments, the cells were washed twice in PBS, fixed in 4% paraformaldehyde for 30 min (37°C), washed in PBS and stored at 4°C. For immunofluorescence staining, the cells were washed in PBS containing 0.5% Tween 20 (PBS-T), permeabilized in PBS containing 0.1% Triton X-100 (30 min) and blocked first in 0.1 M glycine and then in PBS-T containing 1% fetal calf serum and 10% BSA. Gal-3-, LAMP1- and cathepsin B-specific antibodies were used at a dilution of 1:100-200 (in PBS-T containing 1% BSA) overnight at 4°C. Subsequently, the samples were washed and incubated with Alexa Fluor™ secondary antibody (1:1,000, 30 min). To assess FITC-dextran release, cells were loaded with 50 µg/ml FITC-dextran for 72 h, cells were then washed and placed in fresh media for 1 h prior to SPM (10 µM) addition. To visualize the nucleus, all samples were stained with DAPI. […]

D508N mutant, sequence (Q9NQ11 1-1175 isoform Q9NQ11-3 D508N): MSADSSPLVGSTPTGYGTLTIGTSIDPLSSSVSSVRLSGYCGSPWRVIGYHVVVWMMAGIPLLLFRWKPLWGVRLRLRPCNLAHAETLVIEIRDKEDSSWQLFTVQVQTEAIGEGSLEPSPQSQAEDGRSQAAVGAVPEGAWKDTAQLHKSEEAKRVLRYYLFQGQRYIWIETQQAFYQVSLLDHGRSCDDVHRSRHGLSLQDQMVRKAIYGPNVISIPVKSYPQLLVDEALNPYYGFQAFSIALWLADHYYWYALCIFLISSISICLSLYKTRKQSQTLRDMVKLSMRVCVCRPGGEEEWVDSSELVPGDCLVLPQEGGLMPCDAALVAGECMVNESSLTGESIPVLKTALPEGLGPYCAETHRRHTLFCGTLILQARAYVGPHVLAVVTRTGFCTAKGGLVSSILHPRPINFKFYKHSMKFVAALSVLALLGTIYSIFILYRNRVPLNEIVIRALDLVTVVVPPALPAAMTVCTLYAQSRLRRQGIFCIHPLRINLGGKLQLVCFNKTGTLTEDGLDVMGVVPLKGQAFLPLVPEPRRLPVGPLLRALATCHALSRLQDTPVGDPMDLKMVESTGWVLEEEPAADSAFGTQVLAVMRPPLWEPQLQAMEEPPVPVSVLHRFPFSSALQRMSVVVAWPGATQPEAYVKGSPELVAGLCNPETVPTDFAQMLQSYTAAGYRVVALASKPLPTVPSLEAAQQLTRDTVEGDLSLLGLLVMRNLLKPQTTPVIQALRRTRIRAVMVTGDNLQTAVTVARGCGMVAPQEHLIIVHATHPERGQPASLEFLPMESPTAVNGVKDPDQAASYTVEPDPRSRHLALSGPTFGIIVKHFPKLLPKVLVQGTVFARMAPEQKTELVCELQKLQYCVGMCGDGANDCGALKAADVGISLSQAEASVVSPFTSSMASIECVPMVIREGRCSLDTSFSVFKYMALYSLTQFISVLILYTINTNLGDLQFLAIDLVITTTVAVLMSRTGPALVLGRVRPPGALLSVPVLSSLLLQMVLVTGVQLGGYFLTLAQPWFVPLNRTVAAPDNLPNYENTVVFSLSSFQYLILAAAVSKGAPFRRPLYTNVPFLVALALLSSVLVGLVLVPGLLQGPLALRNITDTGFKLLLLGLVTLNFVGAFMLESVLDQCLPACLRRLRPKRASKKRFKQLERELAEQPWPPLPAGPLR

In the case of `NCCCNCCCCNCCCN` [Spermine, spermine], the “lysosomal pH” value (SH-SY5Y cells [1]) is reported as “further increased”, the “ATPase activity of D508N mutant” value (D508N mutant) is reported as “had no effect” and the “endogenous Gal-3 punctae” value (SH-SY5Y cells [2]) is reported as “increased both the number and size”.
